Measured values from patent publication US8778984B2, “Aldosterone synthase inhibitor” (Eli Lilly and Company, priority 2011, dated 2014).

Assays:
human cyp11B1 = target: T1, human cyp11B1 (Homo sapiens, UniProt P15538); assay: Cortisol Inhibition Assay (V79-human cyp11B1 cells, cortisol by LC-MS); type: cell-based; settings: for Selectivity Ratio: IC50(hcyp11B1)/IC50(hcyp11B2); for IC50: V79-human cyp11B1 cells, cortisol production from 1 μM 11-deoxycortisol, 24 hours incubation, read-out: IC50 (hcyp11B1)
T1 construct: expressed in transfected cells
T1 sequence (P15538 25-503): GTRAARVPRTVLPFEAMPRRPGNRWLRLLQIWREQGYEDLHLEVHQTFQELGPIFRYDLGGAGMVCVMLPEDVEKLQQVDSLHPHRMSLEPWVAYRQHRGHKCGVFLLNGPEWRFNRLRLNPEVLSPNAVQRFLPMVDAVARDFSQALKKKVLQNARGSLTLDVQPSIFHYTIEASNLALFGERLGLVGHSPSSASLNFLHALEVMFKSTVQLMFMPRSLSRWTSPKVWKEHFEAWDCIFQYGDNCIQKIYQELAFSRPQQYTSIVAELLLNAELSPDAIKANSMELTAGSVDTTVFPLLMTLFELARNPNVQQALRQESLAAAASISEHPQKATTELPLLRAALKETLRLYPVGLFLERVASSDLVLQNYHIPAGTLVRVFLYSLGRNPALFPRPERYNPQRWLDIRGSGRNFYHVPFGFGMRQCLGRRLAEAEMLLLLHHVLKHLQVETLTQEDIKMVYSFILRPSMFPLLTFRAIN
Experimental: Chinese hamster fibroblast cells (V79) constitutively expressing human cyp11B1 are established by transfection with a mammalian expression vector harboring the human cyp11B1 cDNA under CMV promoter and a neomycin antibiotic resistant gene for selection in mammalian cells. V79 cells are transfected in T225 cm^2 flasks with the lipofectamine transfection reagent and the human cyp11B1 cDNA. Positive clones are selected with the selection antibiotic geneticin at 1 mg/mL. Cortisol production from transfected cells is initiated by the addition of 1 μM 11-deoxycortisol in the medium. After 24 hours incubation, culture medium is collected and cortisol concentration in the medium is determined using a liquid chromatography-mass spectrometry (LC-MS) method. The cell media (100 μL) is transferred to a new deep-well 96-well plate. A Beckman Coulter FX liquid handling system (modified for use with organic solvents) with a 96-tip head is used to add an IS solution to each well (10 μl of 200 ng/mL d-4-cortisol). The wells are then extracted 3× with EtOAc (300 μl) using the FX, combining the organic layers in a new deep-well 96-well plate. The solvent is then dried in a GeneVac HT-4 or under nitrogen. The FX is then used to reconstitute the samples in 50% MeOH/water (100 μl) and the plates are heat-sealed.
A 40 μl aliquot of the sample is injected and a gradient from 20-100% MeOH in 0.95 min is initiated. […] Starting conditions are then held for 1 minute to re-equilibrate the column. An ABI QTRAP 4000 tandem mass spectrometer is used for MS/MS analysis in the positive ion mode. […] These are respectively integrated to give the peak areas. The cortisol/IS area-ratio is used to determine cortisol concentration by comparison to a standard curve. The detection limit for cortisol is 1 ng/mL.
11-Deoxycortisol and various concentrations of test compounds in 1:3 dilution increments are added to the cell culture medium. After 24 hours incubation, 100 μl of cell medium are collected and cortisol concentration determined as described above. Data are fit to a 4 parameter-fit logistics curve to determine IC50 values.

[1] = tested on: estradiol production from H295R cells; assay: cells; type: cell-based, human; settings: for inhibition of estradiol production (in words) / IC50: H295R cells; for IC50: Homo sapiens, NCI-H295R, 48 hours incubation, read-out: Estradiol IC50; for Selectivity ratio for aldosterone compared with estradiol: estradiol IC50 (H295R) relative to aldosterone IC50 (hcyp11B2)
Experimental: (§1) The human adrenocarcinoma cell line H295R is used to monitor the production of testosterone and estradiol in vitro. […] Various concentrations of test compounds in 1:3 dilution increments are added to the cell culture medium. After incubation for 48 hours, 100 μl culture medium is collected and d5-estradiol and d3-testosterone are added as ISs for estradiol and testosterone respectively.
(§2) An equal volume of sodium carbonate/sodium bicarbonate buffer (0.5 mol/L, pH 9.4) is added to the samples followed by freshly prepared dansyl chloride solution (50 μl, 20 mg/mL). Samples are mixed and incubated for 60 min at 60° C. The samples are then extracted 3× with EtOAc ([…]) using the FX, combining the organic layers in a new deep-well 96-well plate. The solvent is then dried in a GeneVac HT-4 or under nitrogen. The FX is used to reconstitute the samples in 50% MeOH/water ([…]) and the plates are heat-sealed.
(§3) A 40 μl aliquot of the sample is injected and a gradient from 20-100% MeOH in 0.95 min is initiated. An ABI QTRAP 4000 tandem mass spectrometer is used for MS/MS analysis in the positive ion mode. […] These peaks are separately integrated to give the peak areas. The area ratios of testosterone/IS and estradiol/IS are used to determine testosterone and estradiol concentrations by comparison to their respective standard curves. The detection limits for testosterone and estradiol are 0.1 ng/mL and 0.01 ng/mL respectively.

[2] = tested on: testosterone production from H295R cells; assay: cells; type: cell-based, human; settings: for inhibition of testosterone production (in words) / IC50: H295R cells; for IC50: Homo sapiens, NCI-H295R, 48 hours incubation, read-out: Testosterone IC50; for Selectivity ratio for aldosterone compared with testosterone: testosterone IC50 (H295R) relative to aldosterone IC50 (hcyp11B2)
Experimental: as §1, §2, §3

[3] = target: T2, cynomolgus monkey cyp11B2 (Macaca fascicularis, UniProt A0A2K5UPL9); assay: Cynomolgus Monkey Aldosterone Inhibition Assay; type: cell-based; settings: V79 cells expressing cynomolgus monkey cyp11B2; n=1; read-out: relative IC50, cynomolgus monkey aldosterone inhibition assay
T2 construct: expressed in transfected cells; host or cells: Chinese hamster fibroblast V79 cells
T2 sequence (A0A2K5UPL9 1-503): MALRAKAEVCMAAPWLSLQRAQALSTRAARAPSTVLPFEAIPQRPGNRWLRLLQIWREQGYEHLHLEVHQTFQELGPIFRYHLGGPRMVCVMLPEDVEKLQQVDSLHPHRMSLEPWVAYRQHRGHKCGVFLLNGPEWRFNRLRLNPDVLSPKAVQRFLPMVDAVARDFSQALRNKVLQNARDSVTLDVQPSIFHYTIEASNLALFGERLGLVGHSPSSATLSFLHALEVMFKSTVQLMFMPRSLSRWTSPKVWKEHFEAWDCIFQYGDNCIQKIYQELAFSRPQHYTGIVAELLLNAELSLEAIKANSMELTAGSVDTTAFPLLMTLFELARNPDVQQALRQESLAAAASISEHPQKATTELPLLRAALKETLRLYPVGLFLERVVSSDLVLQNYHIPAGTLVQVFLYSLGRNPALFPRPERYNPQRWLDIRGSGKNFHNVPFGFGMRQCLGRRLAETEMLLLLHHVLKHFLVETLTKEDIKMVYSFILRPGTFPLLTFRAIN
Experimental: Chinese hamster fibroblast cells (V79) constitutively expressing cynomolgus monkey cyp11B2 is established by transfection with a mammalian expression vector harboring the cynomolgus monkey cyp11B2 cDNA. This cell line was used to measure the activity of compounds in inhibiting […] from cynomolgus monkey enzyme. Cell culture condition and aldosterone detection method is performed following the same protocol described in the “Aldosterone inhibition assay”.

SMILES: CC1(C)C[C@H](c2ccc(C#N)cc2)c2cn[nH]c21 (single isomer, unassigned) [Example 1]
- Selectivity Ratio (human cyp11B1): 33.0
- IC50 (human cyp11B1): 165 nM
- inhibition of estradiol production (in words) [1]: weak inhibition
- IC50 [1]: 13.2 µM
- Selectivity ratio for aldosterone compared with estradiol [1]: 2640
- inhibition of testosterone production (in words) [2]: weak inhibition
- IC50 [2]: > 30 µM
- Selectivity ratio for aldosterone compared with testosterone [2]: >6000
- IC50 [3]: 2.46 nM

SMILES: CC1(C)CC(c2ccc(C#N)cc2F)c2cn[nH]c21 (single isomer, unassigned; isomer 1) [Example 49, 4-(6,6-Dimethyl-4,5-dihydro-1H-cyclopenta[c]pyrazol-4-yl)-3-fluoro-benzonitrile, isomer 1]
- Selectivity Ratio (human cyp11B1): 44.4
- IC50 (human cyp11B1): 311 nM
- inhibition of estradiol production (in words) [1]: weak inhibition
- IC50 [1]: 22 µM
- Selectivity ratio for aldosterone compared with estradiol [1]: 3143
- inhibition of testosterone production (in words) [2]: weak inhibition
- IC50 [2]: > 30 µM
- Selectivity ratio for aldosterone compared with testosterone [2]: >4285
- IC50 [3]: 4.1 nM
